From ChEMBL document CHEMBL1201862, “PubChem BioAssay data set” (2004)
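Step 1: Grow cells in 96-well plates. Step 2: Expose to compound for 48 hours at 5 concentrations. Step 3: Interpolate endpoints linearly; if unreached, use highest concentration. GI50 is the concentration that inhibits growth by half.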 The source made the active and inactive calls. No stated cut-off is given here; in the data, active = GI50 up to about 1.1 µM and inactive = higher.

What was measured:
Experiment in all cases: NCI tumour cell line growth inhibition, 48 h
[1] = tested on: SW-620
[2] = tested on: UO-31
[3] = tested on: OVCAR-5
[4] = tested on: SF-539
[5] = tested on: SNB-75
[6] = tested on: HL-60
[7] = tested on: OVCAR-4
[8] = tested on: SK-MEL-2
[9] = tested on: HOP-62
[10] = tested on: CAKI-1
[11] = tested on: SNB-19
[12] = tested on: HCT-116
[13] = tested on: LOX IMVI
[14] = tested on: UACC-257
[15] = tested on: DU-145
[16] = tested on: MDA-MB-231
[17] = tested on: HOP-92
[18] = tested on: UACC-62
[19] = tested on: COLO 205
[20] = tested on: PC-3
[21] = tested on: Malme-3M
[22] = tested on: SR
[23] = tested on: T47D
[24] = tested on: HCT-15
[25] = tested on: ACHN
[26] = tested on: NCI-H23
[27] = tested on: RXF 393
[28] = tested on: EKVX
[29] = tested on: KM12
[30] = tested on: SK-OV-3
[31] = tested on: MOLT-4
[32] = tested on: SF-295
[33] = tested on: NCI-H226
[34] = tested on: SK-MEL-5
[35] = tested on: SF-268
[36] = tested on: RPMI-8226
[37] = tested on: CCRF-CEM
[38] = tested on: TK-10
[39] = tested on: Hs-578T
[40] = tested on: K562
[41] = tested on: MDA-MB-435
[42] = tested on: M14
[43] = tested on: U-251
[44] = tested on: HT-29
[45] = tested on: NCI-H522
[46] = tested on: OVCAR-3
[47] = tested on: MCF7
[48] = tested on: BT-549
[49] = tested on: A549
[50] = tested on: OVCAR-8
[51] = tested on: MDA-N
[52] = tested on: IGROV-1
[53] = tested on: SN12C
[54] = tested on: NCI/ADR-RES
[55] = tested on: HCC 2998
[56] = tested on: SK-MEL-28
[57] = tested on: 786-0

CC1(c2nc3cc(Cl)c(Cl)cc3[nH]2)CCC(C(=O)O)C(C)(C)O1 (configuration not stated)
GI50 [1]: > 100 µM (inactive)
GI50 [2]: 34.8 µM (inactive)
GI50 [3]: > 100 µM (inactive)
GI50 [4]: > 100 µM (inactive)
GI50 [5]: > 100 µM (inactive)
GI50 [6]: > 100 µM (inactive)
GI50 [7]: 78.9 µM (inactive)
GI50 [8]: > 100 µM (inactive)
GI50 [9]: > 100 µM (inactive)
GI50 [10]: > 100 µM (inactive)
GI50 [11]: > 100 µM (inactive)
GI50 [12]: > 100 µM (inactive)
GI50 [13]: > 100 µM (inactive)
GI50 [14]: > 100 µM (inactive)
GI50 [15]: > 100 µM (inactive)
GI50 [16]: > 100 µM (inactive)
GI50 [17]: > 100 µM (inactive)
GI50 [18]: > 100 µM (inactive)
GI50 [19]: > 100 µM (inactive)
GI50 [20]: > 100 µM (inactive)
GI50 [21]: > 100 µM (inactive)
GI50 [22]: > 100 µM (inactive)
GI50 [23]: > 100 µM (inactive)
GI50 [24]: > 100 µM
GI50 [25]: > 100 µM (inactive)
GI50 [26]: > 100 µM (inactive)
GI50 [27]: > 100 µM (inactive)
GI50 [28]: > 100 µM (inactive)
GI50 [29]: > 100 µM (inactive)
GI50 [30]: > 100 µM (inactive)
GI50 [31]: > 100 µM (inactive)
GI50 [32]: > 100 µM (inactive)
GI50 [33]: > 100 µM (inactive)
GI50 [34]: > 100 µM (inactive)
GI50 [35]: > 100 µM (inactive)
GI50 [36]: > 100 µM (inactive)
GI50 [37]: > 100 µM (inactive)
GI50 [38]: > 100 µM (inactive)
GI50 [39]: > 100 µM (inactive)
GI50 [40]: > 100 µM (inactive)
GI50 [41]: > 100 µM (inactive)
GI50 [42]: > 100 µM (inactive)
GI50 [43]: > 100 µM (inactive)
GI50 [44]: > 100 µM (inactive)
GI50 [45]: > 100 µM (inactive)
GI50 [46]: > 100 µM (inactive)
GI50 [47]: > 100 µM (inactive)
GI50 [48]: > 100 µM (inactive)
GI50 [49]: > 100 µM (inactive)
GI50 [50]: > 100 µM (inactive)
GI50 [51]: > 100 µM (inactive)
GI50 [52]: > 100 µM (inactive)
GI50 [53]: > 100 µM (inactive)
GI50 [54]: > 100 µM (inactive)
GI50 [55]: > 100 µM (inactive)
GI50 [56]: > 100 µM (inactive)
GI50 [57]: > 100 µM (inactive)
